The values that follow come from US10988502B2, “Alpha-D-galactoside inhibitors of galectins” (GALECTO BIOTECH AB, priority 2016, dated 2021).

For one experiment, the target named is Galectin-1 (Homo sapiens (Human), UniProt P09382). Nature of the experiment: Fluorescence anisotropy assay, compound as inhibitor of galectin / fluorescein tagged saccharide probe interaction. The format is binding. On the procedure:
(§1) The affinity of Example 1-32 for galectins were determined by a fluorescence anisotropy assay where the compound was used as an inhibitor of the interaction between galectin and a fluorescein tagged saccharide probe as described Sörme, P., Kahl-Knutsson, B., Huflejt, M., Nilsson, U. J., and Leffler H. (2004) Fluorescence polarization as an analytical tool to evaluate galectin-ligand interactions. Anal. Biochem. 334: 36-47, (Sörme et al., 2004) and Monovalent interactions of Galectin-1 By Salomonsson, Emma; Larumbe, Amaia; Tejler, Johan; Tullberg, Erik; Rydberg, Hanna; Sundin, Anders; Khabut, Areej; Frejd, Torbjorn; Lobsanov, Yuri D.; Rini, James M.; et al, From Biochemistry (2010), 49(44), 9518-9532, (Salonmonsson et al., 2010).
For orientation: Fluorescence polarisation rises when a labelled molecule tumbles more slowly, as on binding a larger partner.

Another experiment deals with Galectin-3 (Homo sapiens (Human), UniProt P17931). The description is as above. The format is binding. On the procedure: as §1
Galectin-3, sequence (P17931 whole entry): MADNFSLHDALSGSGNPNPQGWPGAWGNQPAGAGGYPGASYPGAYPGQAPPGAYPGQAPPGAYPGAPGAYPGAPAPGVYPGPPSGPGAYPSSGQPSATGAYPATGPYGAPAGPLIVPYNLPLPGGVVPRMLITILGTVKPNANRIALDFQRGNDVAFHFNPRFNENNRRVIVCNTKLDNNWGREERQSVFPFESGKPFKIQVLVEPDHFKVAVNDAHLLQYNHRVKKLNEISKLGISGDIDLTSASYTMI

One may read the Kd as the concentration at which binding is half-saturated. Read a high Kd as a looser complex. Take `OC[C@H]1O[C@H](Sc2cc(Cl)c(Cl)c(Cl)c2)[C@H](O)[C@@H](n2cc(-c3nncs3)nn2)[C@H]1O` [Example 19, 3,4,5-Trichlorophenyl 3-deoxy-3-[4-(1,3,4-thiadiazol-2-yl)-1H-1,2,3-triazol-1-yl]-1-thio-α-D-galactopyranoside]: the Kd on Galectin-1 was 350 nM; on Galectin-3 it was 4400 nM.

`OCC1O[C@H](Sc2cncc(Br)c2)C(O)[C@@H](n2cc(-c3nccs3)nn2)[C@H]1O` (stereo partly drawn) [Example 20, 5-Bromopyrdin-3-yl 3-deoxy-3-[4-(2-thiazolyl)-1H-1,2,3-triazol-1-yl]-1-thio-α-D-galactopyranoside]: the equilibrium dissociation constant (Kd) worked out at 550 nM on Galectin-1 and 4600 nM on Galectin-3.

As to `OC[C@H]1O[C@H](Sc2cncc(Br)c2)[C@H](O)[C@@H](n2cc(-c3ccsc3)nn2)[C@H]1O` [Example 3, 5-Bromopyridin-3-yl 3-deoxy-3-[4-(3-thiophenyl)-1H-1,2,3-triazol-1-yl]-1-thio-α-D-galactopyranoside], the dissociation constant Kd at Galectin-1 came to 680 nM; at Galectin-3 it was 1700 nM.

For `OC[C@H]1O[C@H](Sc2cnc(C(F)(F)F)c(Br)c2)[C@H](O)[C@@H](n2cc(-c3cscn3)nn2)[C@H]1O` [Example 11, 5-Bromo-6-trifluoromethyl-pyridin-3-yl 3-deoxy-3-[4-(4-thiazolyl)-1H-1,2,3-triazol-1-yl]-1-thio-α-D-galactopyranoside], the dissociation constant (Kd) on Galectin-1 is 170 nM; at Galectin-3, 2900 nM.

For the compound `N#Cc1ccc(S[C@H]2OC(CO)[C@H](O)[C@H](n3cc(-c4cscn4)nn3)C2O)cc1Cl` (stereo partly drawn) [Example 13, 2-Chloro-benzonitril-4-yl 3-deoxy-3-[4-(4-thiazolyl)-1H-1,2,3-triazol-1-yl]-1-thio-α-D-galactopyranoside], the dissociation constant Kd came out at 370 nM at Galectin-1 and 6100 nM on Galectin-3.

Take `OC[C@H]1O[C@H](Sc2ccc(Cl)c(Br)c2)[C@H](O)[C@@H](n2cc(-c3nccs3)nn2)[C@H]1O` [Example 25, 3-Bromo-4-chlorophenyl 3-deoxy-3-[4-(2-thiazolyl)-1H-1,2,3-triazol-1-yl]-1-thio-α-D-galactopyranoside]: the values for the Kd at Galectin-1 and on Galectin-3 were 440 nM and 4400 nM, respectively.

Consider `OC[C@H]1O[C@H](Sc2ccc(Cl)c(Cl)c2)[C@H](O)[C@@H](n2cc(-c3ccc(F)s3)nn2)[C@H]1O` [Example 9, 3,4-Dichlorophenyl 3-deoxy-3-[4-(5-fluoro-2-thiophenyl)-1H-1,2,3-triazol-1-yl]-1-thio-α-D-galactopyranoside], for which the Kd at Galectin-1 was found to be 550 nM; at Galectin-3 it was 970 nM.

Regarding `OC[C@H]1O[C@H](Sc2ccc(Cl)c(Cl)c2)[C@H](O)[C@@H](n2cc(-c3ccc(F)cn3)nn2)[C@H]1O` [Example 6, 3,4-Dichlorophenyl 3-deoxy-3-[4-(5-fluoro-2-pyridyl)-1H-1,2,3-triazol-1-yl]-1-thio-α-D-galactopyranoside], the values for the equilibrium dissociation constant (Kd) on Galectin-1 and on Galectin-3 were 240 nM and 690 nM, respectively.

Take `OC[C@H]1O[C@H](Sc2cc(Cl)ccc2Cl)[C@H](O)[C@@H](n2cc(-c3nccs3)nn2)[C@H]1O` [Example 28, 2,5-Dichlorophenyl 3-deoxy-3-[4-(2-thiazolyl)-1H-1,2,3-triazol-1-yl]-1-thio-α-D-galactopyranoside]: the dissociation constant Kd at Galectin-1 was determined as 910 nM; on Galectin-3 it was 8200 nM.

As to `OC[C@H]1O[C@H](Sc2ccc(Cl)c(Cl)c2)[C@H](O)[C@@H](n2cc(-c3nc(C(F)(F)F)cs3)nn2)[C@H]1O` [Example 32, 3,4-Dichlorophenyl 3-deoxy-3-[4-(4-trifluoromethyl-thiazol-2-yl)-1H-1,2,3-triazol-1-yl]-1-thio-α-D-galactopyranoside], the results for the Kd at Galectin-1 and at Galectin-3 were 790 nM and 210 nM, respectively.

For `N#Cc1ncc(Br)cc1S[C@H]1O[C@H](CO)[C@H](O)[C@H](n2cc(-c3nccs3)nn2)[C@H]1O` [Example 22, 5-Bromo-2-cyano-pyridine-3-yl 3-deoxy-3-[4-(2-thiazolyl)-1H-1,2,3-triazol-1-yl]-1-thio-α-D-galactopyranoside], the Kd was found to be 200 nM at Galectin-1 and 1200 nM at Galectin-3.

With `OCC1O[C@H](Sc2ccc(Cl)c(Cl)c2)C(O)[C@@H](n2cc(-c3nc(Br)cs3)nn2)[C@H]1O` (stereo partly drawn) [Example 29, 3,4-dichlorophenyl 3-deoxy-3-[4-(4-bromo-2-thiazol-2-yl)-1H-1,2,3-triazol-1-yl]-1-thio-α-D-galactopyranoside], the dissociation constant (Kd) on Galectin-1 worked out at 150 nM; at Galectin-3, 810 nM.

As for `OC[C@H]1O[C@H](Sc2cncc(Cl)c2)[C@H](O)[C@@H](n2cc(-c3nccs3)nn2)[C@H]1O` [Example 21, 5-Chloropyridin-3-yl 3-deoxy-3-[4-(2-thiazolyl)-1H-1,2,3-triazol-1-yl]-1-thio-α-D-galactopyranoside], the Kd at Galectin-1 is 220 nM; on Galectin-3, 1800 nM.

For `N#Cc1cc(F)c(S[C@H]2OC(CO)[C@H](O)[C@H](n3cc(-c4ccsc4)nn3)C2O)cc1Cl` (stereo partly drawn) [Example 2, 2-Chloro-5-fluoro-benzonitril-4-yl 3-deoxy-3-[4-(3-thiophenyl)-1H-1,2,3-triazol-1-yl]-1-thio-α-D-galactopyranoside], the dissociation constant (Kd) on Galectin-1 is 190 nM; at Galectin-3 it was 1950 nM.

Turning to `OC[C@H]1O[C@H](Sc2cncc(Br)c2)[C@H](O)[C@@H](n2cc(-c3cccs3)nn2)[C@H]1O` [Example 7, 5-Bromopyridin-3-yl 3-deoxy-3-[4-(2-thiophenyl)-1H-1,2,3-triazol-1-yl]-1-thio-α-D-galactopyranoside], the Kd came to 450 nM at Galectin-1 and 1250 nM at Galectin-3.

As to `N#Cc1c(Cl)cc(S[C@H]2OC(CO)[C@H](O)[C@H](n3cc(-c4nccs4)nn3)C2O)cc1Cl` (stereo partly drawn) [Example 16, 2,6-Dichloro-bensonitril-4-yl 3-deoxy-3-[4-(2-thiazolyl)-1H-1,2,3-triazol-1-yl]-1-thio-α-D-galactopyranoside], the Kd on Galectin-1 was found to be 800 nM; at Galectin-3, 12000 nM.

`OC[C@H]1O[C@H](Sc2ccc(Cl)c(Cl)c2)[C@H](O)[C@@H](n2cc(-c3cscn3)nn2)[C@H]1O` [Example 12, 3,4-Dichlorophenyl 3-deoxy-3-[4-(4-thiazolyl)-1H-1,2,3-triazol-1-yl]-1-thio-α-D-galactopyranoside]: the dissociation constant (Kd) on Galectin-1 turned out to be 310 nM; on Galectin-3, 5300 nM.

Consider `OC[C@H]1O[C@H](Sc2ccc(Cl)c(Cl)c2)[C@H](O)[C@@H](n2cc(-c3ncc(F)s3)nn2)[C@H]1O` [Example 30, 3,4-Dichlorophenyl 3-deoxy-3-[4-(5-fluoro-thiazol-2-yl)-1H-1,2,3-triazol-1-yl]-1-thio-α-D-galactopyranoside], for which the Kd is 400 nM at Galectin-1 and 1600 nM at Galectin-3.

In the case of `OC[C@H]1O[C@H](Sc2cncc(Br)c2)[C@H](O)[C@@H](n2cc(-c3cscn3)nn2)[C@H]1O` [Example 10, 5-Bromopyridin-3-yl 3-deoxy-3-[4-(4-thiazolyl)-1H-1,2,3-triazol-1-yl]-1-thio-α-D-galactopyranoside], the Kd at Galectin-1 worked out at 250 nM; at Galectin-3, 4100 nM.

With `OC[C@H]1O[C@H](Sc2ccc(Cl)c(Cl)c2)[C@H](O)[C@@H](n2cc(-c3nc(Cl)cs3)nn2)[C@H]1O` [Example 31, 3,4-Dichlorophenyl 3-deoxy-3-[4-(4-chloro-thiazol-2-yl)-1H-1,2,3-triazol-1-yl]-1-thio-α-D-galactopyranoside], the Kd at Galectin-1 came out at 120 nM; on Galectin-3, 460 nM.
